Here are results for 22 molecules from ChEMBL document CHEMBL4665703, “Structurally Diverse Indole Alkaloids with Vasorelaxant Activity from Melodinus hemsleyanus” (J Nat Prod, 2020).

By EC50 is commonly meant the midpoint of the concentration-response curve.

Structures can show the parent of a compound that is named as a salt. Bounds are passed on as bounds.

This test has as its system Aorta. The experiment in a line: Vasorelaxant activity in Sprague-Dawley rat aortic artery assessed as reduction in phenylephrine-induced contractions. Type of test: functional, tissue-based.
On to `CC[C@]12CCCN3CCc4c(n(c5ccccc45)[C@@H](OC)C1)[C@@H]32`, for which the EC50 is over 10 µM.
In the case of `C[C@@H]1C(=O)O[C@]23N4CC=C[C@]12C[C@@H]1C(=O)Nc2ccccc2[C@@]13CC4`, the EC50 is over 10 µM.
As for `C[C@@H]1C(=O)[C@@]23C[C@@]14C=CCN1CC[C@@]2(c2ccccc2NC3=O)[C@@H]14`, the EC50 is over 10 µM.
Under `CC[C@]12C=CCN3CCc4c(n(c5cc(O)ccc45)[C@@](O)(C(=O)OC)C1)[C@@H]32` stands 2.8 µM; under `COC(=O)[C@@H](C)[C@]12C=CCN3CC[C@@]4(c5ccccc5NC(=O)[C@H]4C1)[C@@H]32`, over 10 µM.
As to `CC[C@]12CC(=O)N3CC[C@]4(C(=C(C(=O)OC)C1)Nc1cc(O)ccc14)[C@@H]32`, the concentration for a half-maximal effect (EC50) is over 10 µM.
Take `CC[C@@]12CC(C(=O)OC)=C3Nc4cc(O)ccc4[C@@]34CCN(C(=O)[C@H]3O[C@H]31)[C@@H]24`: the EC50 is over 10 µM.
Take `C[C@H]1C(=O)[C@@]23C[C@@]14C=CCN1CC[C@@]2(c2ccccc2NC3=O)[C@@H]14`: the EC50 is over 10 µM.
Take `CC[C@]12CCC[N+]3([O-])CC[C@]4(C(=C(C(=O)OC)C1)Nc1cc(O)ccc14)[C@H]23` (some centres not stated): the EC50 is over 10 µM.
For the molecule `CC[C@]12C=CCN3CCc4c(n(c5ccccc45)[C@@](O)(C(=O)OC)C1)[C@@H]32`, the EC50 came to 1.9 µM.
For `CC[C@]12C=CC(=O)N3CC[C@]4(C(=C(C(=O)OC)C1)Nc1ccccc14)[C@@H]32`, the EC50 stood at 0.8 µM.
For the molecule `CC[C@]12C=CCN3CCc4c(n(c5cc(O)ccc45)[C@](O)(C(=O)OC)C1)[C@@H]32`, the EC50 amounted to 2.4 µM.
For the molecule `CC[C@]12C=CCN3CCc4c(n(c5cc(OC)ccc45)[C@@](O)(C(=O)OC)C1)[C@@H]32`, the EC50 is 2.2 µM.
Next, `COC(=O)[C@@H]1C[C@@]23CCC[N+]4([O-])CC[C@@]5(c6ccccc6N[C@]15CC2)[C@H]34` (some centres not stated): over 10 µM; `CC[C@]12C=CCN3CCc4c(n(c5cc(OC)ccc45)[C@](O)(C(=O)OC)C1)[C@@H]32`: 1.9 µM; `CC[C@]12C=CCN3CCc4c(n(c5ccccc45)[C@](O)(C(=O)OC)C1)[C@@H]32`: 3.8 µM.
Next, `CC[C@]12CCCN3CC[C@]4(C(=C(C(=O)OC)C1)Nc1cc(O)ccc14)[C@@H]32`: over 10 µM.
For `COC(=O)[C@@H]1C[C@@]23CCCN4CC[C@@]5(c6ccccc6N[C@]15CC2)[C@@H]43`, the EC50 is over 10 µM.
As for `C[C@H](O)[C@@]12C[C@@H](C(N)=O)c3[nH]c4ccccc4c3CCN(C[C@H](O)[C@H]1O)C2=O`, the EC50 was over 10 µM.
Next, `Cc1ccc(N(CC2=NCCN2)c2cccc(O)c2)cc1` [PHENTOLAMINE MESYLATE]: 0.1 µM; `CC[C@]12C=CCN3CC[C@]4(C(=C(C(=O)OC)C1)Nc1ccccc14)[C@@H]32` [TABERSONINE]: over 10 µM.
Under `CC[C@]12CCCN3CCc4c(n(c5ccccc45)[C@@H](O)C1)[C@@H]32` [VINCANOL] stands over 10 µM.
